Results published in ChEMBL document CHEMBL1201862, “PubChem BioAssay data set” (2004).
Calls of active or inactive are those of the source.

Key:
Cytochrome P450 3A4 = Cytochrome P450 3A4 (Homo sapiens, UniProt P08684); details: Potency;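 also: confirmatory qHTS run detecting inhibitors and substrates of CYP3A4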
HeLa = assay: HeLa cell cytotoxicity, dose response, cytotoxicity control for MITF activator project, CellTiter-Glo luminescence, cherry-pick samples (AID 540259); assay type: functional, cell-based; details: Homo sapiens
[1] = molecular target: T1, Voltage-gated N-type calcium channel alpha-1B subunit/Amyloid beta A4 precursor protein-binding family A member 1 (Homo sapiens, UniProt Q00975+Q02410); assay type: protein assay
[2] = molecular target: T1, Voltage-gated N-type calcium channel alpha-1B subunit/Amyloid beta A4 precursor protein-binding family A member 1; assay type: protein assay; remark: listed apart in the source
[3] = A549 cell cytotoxicity, dose response, cytotoxicity control, plate reader, cherry-pick, antagonist series (AID 743412); assay type: functional, cell-based
Prothrombin = Prothrombin (Homo sapiens, UniProt P00734); assay: Thrombin 1536 HTS Dose Response Confirmation. [Related pubchem assays: 1046 (Thrombin 1536 HTS; hits were confirmed in this assay)]; assay type: functional
[4] = molecular target: Voltage-dependent T-type calcium channel subunit alpha-1H (Homo sapiens, UniProt O95180); assay type: functional;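 also: channel activity triggered by adding a high calcium stimulation buffer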
[5] = human group III sPLA2 inhibitors, dose response, biochemical, QFRET, IC50 (AID 743457);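 also: green fluorescence rise as the enzyme cleaves BODIPY PC-A2 in liposomes; potency for inhibition of the enzyme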
Coagulation factor XII = molecular target: T2, Coagulation factor XII (Homo sapiens, UniProt P00748); assay type: functional;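 also: activated factor XIIa alpha cleaving a fluorogenic AMC peptide substrate; inhibitor potency from loss of enzyme activity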
T2 sequence (P00748 whole entry): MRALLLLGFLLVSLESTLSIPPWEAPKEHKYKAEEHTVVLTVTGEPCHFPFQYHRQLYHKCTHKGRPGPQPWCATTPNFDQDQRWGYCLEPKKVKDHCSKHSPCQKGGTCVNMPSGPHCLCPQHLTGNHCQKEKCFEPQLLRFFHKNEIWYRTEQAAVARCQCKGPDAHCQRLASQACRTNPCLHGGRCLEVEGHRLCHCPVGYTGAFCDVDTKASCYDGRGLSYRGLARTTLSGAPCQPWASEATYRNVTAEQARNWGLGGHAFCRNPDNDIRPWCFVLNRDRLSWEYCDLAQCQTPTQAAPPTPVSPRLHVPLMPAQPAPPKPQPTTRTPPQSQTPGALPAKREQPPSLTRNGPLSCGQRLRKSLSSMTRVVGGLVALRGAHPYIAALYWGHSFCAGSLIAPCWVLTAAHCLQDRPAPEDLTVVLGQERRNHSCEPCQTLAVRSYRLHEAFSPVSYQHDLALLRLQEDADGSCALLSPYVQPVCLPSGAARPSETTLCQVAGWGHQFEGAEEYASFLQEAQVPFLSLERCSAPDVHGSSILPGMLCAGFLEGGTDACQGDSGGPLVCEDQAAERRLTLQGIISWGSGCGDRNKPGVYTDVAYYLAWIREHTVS

cells [6] = assay type: functional, cell-based
[7] = molecular target: T3, Ubiquitin-conjugating enzyme E2 N (Homo sapiens, UniProt P61088); assay type: functional;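 also: Dose-response confirmation in a TR-FRET assay detecting UBC13-driven polyubiquitin chain formation, inhibition measured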
T3 sequence (P61088 whole entry): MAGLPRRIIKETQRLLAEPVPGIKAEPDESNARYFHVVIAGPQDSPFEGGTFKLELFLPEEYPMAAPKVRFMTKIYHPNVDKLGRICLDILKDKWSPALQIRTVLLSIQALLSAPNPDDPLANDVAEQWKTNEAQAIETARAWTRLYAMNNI

cells [8] = assay type: functional, cell-based; remark: listed apart in the source
[9] = NIH-3T3 fibroblast cytotoxicity, dose response, cytotoxicity control, cell-based, fluorescence, Alamar Blue, secondary assay (AID 2327); assay type: functional;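 also: NIH-3T3 mouse fibroblasts cultured with fluconazole at 8 µg/mL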
[10] = molecular target: T4, DNA repair protein RAD52 homolog (Homo sapiens, UniProt P43351); assay type: functional, biochemical
T4 sequence (P43351 whole entry): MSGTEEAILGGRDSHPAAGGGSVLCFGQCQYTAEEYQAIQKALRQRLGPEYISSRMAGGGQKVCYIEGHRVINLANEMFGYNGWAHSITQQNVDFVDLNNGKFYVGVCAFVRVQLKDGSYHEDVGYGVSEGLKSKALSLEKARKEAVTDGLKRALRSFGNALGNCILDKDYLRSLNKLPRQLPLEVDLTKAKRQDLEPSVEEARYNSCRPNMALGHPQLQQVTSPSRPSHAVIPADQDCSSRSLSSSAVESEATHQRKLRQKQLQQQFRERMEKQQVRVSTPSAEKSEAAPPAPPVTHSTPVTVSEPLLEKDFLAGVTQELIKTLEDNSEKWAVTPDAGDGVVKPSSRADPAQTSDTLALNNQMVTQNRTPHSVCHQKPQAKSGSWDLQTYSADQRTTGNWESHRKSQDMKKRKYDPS

Cytochrome P450 2C9 = Cytochrome P450 2C9 (Homo sapiens, UniProt P11712)
[11] = molecular target: T5, Calpain-2 catalytic subunit (Sus scrofa, UniProt P43367); assay: pig calpain II inhibitor potency, dose response, biochemical, fluorogenic peptide substrate (AID 1420); assay type: functional
T5 sequence (P43367 whole entry): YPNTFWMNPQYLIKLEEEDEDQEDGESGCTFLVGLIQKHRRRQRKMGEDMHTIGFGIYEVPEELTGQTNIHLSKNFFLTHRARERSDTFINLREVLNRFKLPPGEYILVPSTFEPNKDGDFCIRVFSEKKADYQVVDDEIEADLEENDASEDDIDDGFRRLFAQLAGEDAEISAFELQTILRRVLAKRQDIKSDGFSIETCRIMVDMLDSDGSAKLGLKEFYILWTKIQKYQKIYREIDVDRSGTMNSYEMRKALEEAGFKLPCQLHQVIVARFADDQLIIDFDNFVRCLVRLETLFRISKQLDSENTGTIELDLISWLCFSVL

Paired box protein Pax-8 = Paired box protein Pax-8 (Homo sapiens, UniProt Q06710); assay: inhibitors of PAX8-driven TPO luciferase reporter, dose response, RMG-I cells, cherry-pick (AID 687027); assay type: functional, cell-based;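 also: luciferase reporter driven by Pax8 target thyroperoxidase promoter measured by SteadyGlo luminescence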
[12] = IGROV1 ovarian cancer cell cytotoxicity, dose response, PAX8 inhibitor project, plate reader, dry powder samples (AID 743043); assay type: functional, cell-based; details: IGROV-1
[13] = cytotoxicity in OVCAR8 ovarian cancer cells, dose response, PAX8 project, cell-based, plate reader, dry powder samples (AID 743197); assay type: functional; details: OVCAR-8
[14] = Luminescence Cell-Based Dose Confirmation HTS to Identify Activators of 5'UTR Stem-Loop Driven Alpha-Synuclein mRNA Translation in H4 Neuroglioblastoma Cells. [Related pubchem assays: 1829 (Project Summary), 1814 (Primary HTS)]; assay type: functional
H4 = assay: Luminescence Cell-Based Dose Response HTS to Identify Activators of 5'UTR Stem-Loop Driven Prion Protein mRNA Translation in H4 Neuroglioblastoma Cells. [Related pubchem assays: 1829 (Project Summary), 1814 (Primary HTS)]; assay type: functional; details: Homo sapiens
[15] = Luminescence Cell-Based Dose Response HTS to Identify Activators of Luciferase Translation or Activity in H4 […] Cells. [Related pubchem assays: 1829 (Project Summary), 1814 (Primary HTS)]; assay type: functional
[16] = molecular target: T6, Corticotropin-releasing factor receptor 2/Corticotropin-releasing factor-binding protein (Homo sapiens, UniProt P24387+Q13324); assay: activators of CRF receptor 2 with binding protein – uHTS hits, confirmation (AID 602473); assay type: functional; details: read-out: EC50_Mean
T6 sequence (Q13324 whole entry): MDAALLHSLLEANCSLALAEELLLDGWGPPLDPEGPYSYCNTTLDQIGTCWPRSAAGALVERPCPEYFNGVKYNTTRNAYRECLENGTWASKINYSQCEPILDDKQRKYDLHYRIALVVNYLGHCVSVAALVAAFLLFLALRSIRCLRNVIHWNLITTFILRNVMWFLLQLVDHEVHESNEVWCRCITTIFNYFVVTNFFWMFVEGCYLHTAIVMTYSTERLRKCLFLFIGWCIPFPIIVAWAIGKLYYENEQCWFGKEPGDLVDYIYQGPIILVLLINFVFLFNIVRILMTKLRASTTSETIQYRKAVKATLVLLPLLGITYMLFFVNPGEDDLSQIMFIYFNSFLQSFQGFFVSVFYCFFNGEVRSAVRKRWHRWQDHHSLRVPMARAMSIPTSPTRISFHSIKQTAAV
T6 sequence (P24387 whole entry): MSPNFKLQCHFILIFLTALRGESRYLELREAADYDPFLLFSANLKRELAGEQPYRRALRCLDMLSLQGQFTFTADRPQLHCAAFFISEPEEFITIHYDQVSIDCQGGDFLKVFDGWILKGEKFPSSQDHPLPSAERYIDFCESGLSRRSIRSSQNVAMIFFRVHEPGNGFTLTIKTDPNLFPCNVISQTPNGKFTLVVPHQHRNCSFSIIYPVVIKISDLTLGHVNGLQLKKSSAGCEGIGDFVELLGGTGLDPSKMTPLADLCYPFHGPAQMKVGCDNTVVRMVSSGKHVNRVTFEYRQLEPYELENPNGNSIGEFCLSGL

[17] = molecular target: T7, Polyadenylate-binding protein 1 (Homo sapiens, UniProt P11940); assay: PABP1 MLLE–PAM2 binding inhibitor potency, dose response, biochemical, fluorescence polarization, FITC-PAM2 peptide (AID 602259); assay type: functional; details: read-out: IC50_Mean
[18] = molecular target: T7, Polyadenylate-binding protein 1; assay: PABP1 MLLE–PAM2 interaction inhibitors, dose response, miRNA deadenylation inhibitor project, biochemical, fluorescence polarization, Cy5-PAM2 peptide, secondary (AID 602260); assay type: functional; details: read-out: IC50_Mean

T1 sequence (Q00975 whole entry): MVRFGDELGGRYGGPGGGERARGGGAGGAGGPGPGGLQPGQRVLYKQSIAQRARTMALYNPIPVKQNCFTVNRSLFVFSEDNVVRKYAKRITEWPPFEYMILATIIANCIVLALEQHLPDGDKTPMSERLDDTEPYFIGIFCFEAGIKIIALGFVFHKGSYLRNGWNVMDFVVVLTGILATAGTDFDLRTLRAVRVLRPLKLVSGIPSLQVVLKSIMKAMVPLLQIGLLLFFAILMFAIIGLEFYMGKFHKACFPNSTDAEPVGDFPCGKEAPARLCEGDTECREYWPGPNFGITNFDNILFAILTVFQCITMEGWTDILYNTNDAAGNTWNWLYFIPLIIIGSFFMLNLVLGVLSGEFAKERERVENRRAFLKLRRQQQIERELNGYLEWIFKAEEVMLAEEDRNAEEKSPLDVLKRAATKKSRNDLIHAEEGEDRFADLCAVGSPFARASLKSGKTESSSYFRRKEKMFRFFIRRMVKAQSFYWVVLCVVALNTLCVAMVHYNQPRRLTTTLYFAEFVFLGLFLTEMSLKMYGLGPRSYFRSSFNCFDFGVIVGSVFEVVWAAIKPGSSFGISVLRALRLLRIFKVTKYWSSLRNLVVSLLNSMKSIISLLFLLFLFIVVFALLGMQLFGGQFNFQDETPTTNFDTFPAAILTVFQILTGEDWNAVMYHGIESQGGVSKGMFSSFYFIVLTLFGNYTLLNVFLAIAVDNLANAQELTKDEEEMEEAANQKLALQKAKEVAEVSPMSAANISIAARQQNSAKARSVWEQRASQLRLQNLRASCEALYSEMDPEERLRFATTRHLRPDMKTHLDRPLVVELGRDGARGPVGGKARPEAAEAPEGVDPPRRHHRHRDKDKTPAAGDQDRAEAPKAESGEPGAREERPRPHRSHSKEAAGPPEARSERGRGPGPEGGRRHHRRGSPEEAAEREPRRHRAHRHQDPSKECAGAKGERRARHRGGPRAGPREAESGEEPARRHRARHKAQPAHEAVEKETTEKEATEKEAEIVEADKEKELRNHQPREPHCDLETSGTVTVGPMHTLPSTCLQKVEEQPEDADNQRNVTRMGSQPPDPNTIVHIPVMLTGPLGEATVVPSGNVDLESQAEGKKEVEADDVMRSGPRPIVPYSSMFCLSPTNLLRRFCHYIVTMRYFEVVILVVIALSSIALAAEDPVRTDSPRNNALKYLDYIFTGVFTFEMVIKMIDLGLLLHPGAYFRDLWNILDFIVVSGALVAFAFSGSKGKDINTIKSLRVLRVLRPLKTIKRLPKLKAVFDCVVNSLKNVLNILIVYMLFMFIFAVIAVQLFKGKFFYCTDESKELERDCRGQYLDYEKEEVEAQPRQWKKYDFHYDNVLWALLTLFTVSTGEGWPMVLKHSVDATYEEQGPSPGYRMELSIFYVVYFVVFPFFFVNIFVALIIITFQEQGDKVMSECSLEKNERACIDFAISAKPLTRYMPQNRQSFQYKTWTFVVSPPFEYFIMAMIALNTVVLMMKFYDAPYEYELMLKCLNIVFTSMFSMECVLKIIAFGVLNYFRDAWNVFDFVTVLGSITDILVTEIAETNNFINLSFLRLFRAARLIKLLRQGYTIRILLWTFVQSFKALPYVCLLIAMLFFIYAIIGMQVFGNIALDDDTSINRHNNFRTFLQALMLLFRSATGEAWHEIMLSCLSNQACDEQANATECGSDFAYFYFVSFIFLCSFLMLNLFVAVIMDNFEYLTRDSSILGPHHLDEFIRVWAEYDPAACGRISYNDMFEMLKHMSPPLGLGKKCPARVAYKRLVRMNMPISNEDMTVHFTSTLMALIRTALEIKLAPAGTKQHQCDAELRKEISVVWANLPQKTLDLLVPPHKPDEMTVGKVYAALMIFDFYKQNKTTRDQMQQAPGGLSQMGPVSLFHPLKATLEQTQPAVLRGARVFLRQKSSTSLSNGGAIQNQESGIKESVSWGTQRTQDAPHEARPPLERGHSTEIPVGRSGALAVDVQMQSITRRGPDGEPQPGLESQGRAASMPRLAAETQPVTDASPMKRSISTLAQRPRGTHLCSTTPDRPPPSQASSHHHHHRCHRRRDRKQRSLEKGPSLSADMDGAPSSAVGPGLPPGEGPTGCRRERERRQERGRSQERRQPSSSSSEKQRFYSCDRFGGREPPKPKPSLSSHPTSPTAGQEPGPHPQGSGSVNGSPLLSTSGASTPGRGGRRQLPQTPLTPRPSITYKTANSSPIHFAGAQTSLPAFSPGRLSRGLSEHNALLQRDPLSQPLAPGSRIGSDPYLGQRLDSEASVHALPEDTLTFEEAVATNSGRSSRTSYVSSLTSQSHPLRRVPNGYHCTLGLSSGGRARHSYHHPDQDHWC
T1 sequence (Q02410 whole entry): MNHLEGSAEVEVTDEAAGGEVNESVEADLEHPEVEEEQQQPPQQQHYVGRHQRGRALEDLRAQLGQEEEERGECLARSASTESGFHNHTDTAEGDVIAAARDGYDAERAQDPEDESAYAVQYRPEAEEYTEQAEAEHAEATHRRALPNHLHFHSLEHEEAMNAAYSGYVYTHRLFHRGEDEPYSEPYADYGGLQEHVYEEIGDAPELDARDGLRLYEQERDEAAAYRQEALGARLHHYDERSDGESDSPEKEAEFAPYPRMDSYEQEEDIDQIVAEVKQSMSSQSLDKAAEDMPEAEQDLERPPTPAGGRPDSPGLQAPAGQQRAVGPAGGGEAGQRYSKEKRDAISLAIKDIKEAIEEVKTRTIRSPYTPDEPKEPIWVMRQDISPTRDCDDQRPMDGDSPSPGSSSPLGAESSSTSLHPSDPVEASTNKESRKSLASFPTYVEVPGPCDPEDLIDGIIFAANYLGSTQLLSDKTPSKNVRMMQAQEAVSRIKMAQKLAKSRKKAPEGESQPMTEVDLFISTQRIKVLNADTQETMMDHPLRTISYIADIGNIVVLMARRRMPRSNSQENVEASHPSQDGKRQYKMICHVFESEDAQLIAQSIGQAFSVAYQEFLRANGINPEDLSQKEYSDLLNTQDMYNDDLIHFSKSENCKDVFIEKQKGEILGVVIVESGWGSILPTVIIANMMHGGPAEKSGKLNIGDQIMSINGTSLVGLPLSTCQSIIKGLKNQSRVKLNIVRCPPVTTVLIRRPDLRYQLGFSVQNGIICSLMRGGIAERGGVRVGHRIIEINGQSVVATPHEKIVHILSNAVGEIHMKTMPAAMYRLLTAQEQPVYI
Chain of Cytochrome P450 3A4 (P08684 whole entry): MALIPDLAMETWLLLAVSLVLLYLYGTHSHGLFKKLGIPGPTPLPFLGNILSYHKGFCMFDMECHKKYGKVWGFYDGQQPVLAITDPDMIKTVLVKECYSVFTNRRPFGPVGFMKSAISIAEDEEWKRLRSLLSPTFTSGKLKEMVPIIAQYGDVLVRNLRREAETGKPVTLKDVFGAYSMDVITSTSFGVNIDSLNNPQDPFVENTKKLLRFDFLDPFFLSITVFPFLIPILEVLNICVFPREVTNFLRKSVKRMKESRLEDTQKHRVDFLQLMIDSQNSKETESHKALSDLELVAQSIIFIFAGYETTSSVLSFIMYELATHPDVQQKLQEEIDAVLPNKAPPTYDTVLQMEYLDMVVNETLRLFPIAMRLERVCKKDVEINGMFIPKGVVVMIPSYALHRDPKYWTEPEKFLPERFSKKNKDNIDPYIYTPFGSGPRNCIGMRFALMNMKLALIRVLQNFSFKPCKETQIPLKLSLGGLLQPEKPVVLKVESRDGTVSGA
T7 sequence (P11940 whole entry): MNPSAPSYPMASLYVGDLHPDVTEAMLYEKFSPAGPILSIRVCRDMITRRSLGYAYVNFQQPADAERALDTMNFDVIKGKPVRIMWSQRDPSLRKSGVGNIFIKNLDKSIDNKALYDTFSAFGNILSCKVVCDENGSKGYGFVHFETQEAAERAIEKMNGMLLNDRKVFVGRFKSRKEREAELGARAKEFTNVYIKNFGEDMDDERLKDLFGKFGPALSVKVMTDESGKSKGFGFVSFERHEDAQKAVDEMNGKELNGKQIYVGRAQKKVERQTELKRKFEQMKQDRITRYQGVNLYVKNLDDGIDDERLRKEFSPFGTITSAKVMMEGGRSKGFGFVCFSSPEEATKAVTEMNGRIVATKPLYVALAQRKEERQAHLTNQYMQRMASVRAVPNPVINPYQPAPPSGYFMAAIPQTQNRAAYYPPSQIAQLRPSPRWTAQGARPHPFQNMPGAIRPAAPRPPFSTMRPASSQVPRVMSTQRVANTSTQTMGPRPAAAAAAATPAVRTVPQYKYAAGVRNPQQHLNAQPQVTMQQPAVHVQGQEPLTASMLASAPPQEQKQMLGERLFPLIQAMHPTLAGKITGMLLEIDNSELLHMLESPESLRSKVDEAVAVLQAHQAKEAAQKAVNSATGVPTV
Chain of Paired box protein Pax-8 (Q06710 whole entry): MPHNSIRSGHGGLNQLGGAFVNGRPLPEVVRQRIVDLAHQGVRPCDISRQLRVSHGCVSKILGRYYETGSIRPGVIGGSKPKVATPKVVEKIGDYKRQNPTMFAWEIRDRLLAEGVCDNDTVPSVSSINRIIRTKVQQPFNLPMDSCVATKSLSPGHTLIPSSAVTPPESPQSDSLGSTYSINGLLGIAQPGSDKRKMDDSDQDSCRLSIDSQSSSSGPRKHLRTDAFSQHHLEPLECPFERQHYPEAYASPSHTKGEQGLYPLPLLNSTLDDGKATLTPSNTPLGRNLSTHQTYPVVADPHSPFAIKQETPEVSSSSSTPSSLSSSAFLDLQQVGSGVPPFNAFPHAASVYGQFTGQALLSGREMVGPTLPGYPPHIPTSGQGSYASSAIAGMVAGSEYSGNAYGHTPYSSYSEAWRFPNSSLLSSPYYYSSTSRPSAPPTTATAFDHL

C[C@]12CC[C@@H]3c4ccc(OC(=O)c5ccccc5)cc4CC[C@H]3[C@@H]1CCC2=O
AC50 (Cytochrome P450 3A4): 7.94 µM (inconclusive)

O=C1c2ccccc2NC(c2cccc(Cl)c2)N1N=C1CCCCCC1 (stereo not drawn)
AC50 (HeLa): 200 µM (active)

COc1ccc2nc(NC(=O)/C=C/c3ccc4c(c3)OCO4)sc2c1
IC50 [1]: 41.5 µM (active) | IC50 [2]: 19.5 µM (active)

c1ccn(-c2ccc(-c3cc[nH]n3)cc2)c1
AC50 (HeLa): 90.9 µM (active)

COc1ccc2[nH]c3c(c2c1)CCN1C(=O)N([C@@H](C)C(=O)NCc2ccc(C)cc2)C(=O)[C@]31C
AC50 [3]: > 52 µM (inactive)

CC1=C(C(=O)OCc2ccccc2)C(c2ccc(C3CCCCC3)cc2)NC(=O)N1CCCCCC(=O)O (stereo not drawn)
AC50 (Cytochrome P450 3A4): 7.94 µM (inconclusive)

O=[N+]([O-])c1ccc2c3c(cccc13)CC2
AC50 (Cytochrome P450 3A4): 31.6 µM (inconclusive)

O=C(Cc1cccs1)Nc1nnc(CCc2ccccc2)s1
IC50 (Prothrombin): 25.4 µM (active)

O=C(CSCc1ccc(Cl)cc1)NCc1ccc2c(c1)OCO2
EC50 [4]: 4.2 µM (active)

COc1ccc(CCC(=O)NN=C(S)Nc2cccc(C(C)=O)c2)cc1
IC50 [5]: > 122 µM (inactive)

COc1cc(/C=N/O)ccc1OCc1ccccc1Cl
AC50 (HeLa): 40.7 µM (active)

Sc1nnc(-c2ccc(Cl)cc2Cl)n1Cc1ccccc1
IC50 [5]: > 122 µM (inactive)

CCn1c(C)nc2cc(C(=O)NN=C(S)Nc3ccc(C)cc3)ccc21
IC50 (Coagulation factor XII): > 50 µM (inactive) | IC50 (Prothrombin): > 50 µM (not active)

O=c1c2ccccc2nc(N2CCN(c3ccccc3)CC2)n1Cc1ccccc1
EC50 [4]: 9.51 µM (active)

CCOC(=O)c1c(-c2ccccc2)oc2ccc(OCC(O)CN(C)C)cc12 (stereo not drawn)
EC50 (cells [6]): > 350 µM (not active) | IC50 [7]: > 20 µM (inactive) | EC50 (cells [8]): 21.7 µM (active) | EC50 [9]: 10 µM (inconclusive) | AC50 [10]: 15.5 µM (active)

CCOC(=O)C(/C=N/c1cccc(C)c1C)=C(/O)OCC
AC50 (Cytochrome P450 2C9): inconclusive | IC50 [11]: 14 µM (not active) | IC50 (Prothrombin): > 50 µM (not active)

CN(C[C@H]1N[C@@H](CO)[C@@H]1c1ccc(-c2cccc(F)c2)cc1)S(C)(=O)=O
AC50 (Paired box protein Pax-8): 10.3 µM (active) | AC50 [12]: 14.9 µM (active) | AC50 [13]: 23.7 µM (active)

COC(=O)c1ccccc1NC(=O)C1CC(=O)N(c2ccc(F)cc2)C1 (stereo not drawn)
IC50 (Prothrombin): > 50 µM (not active)

COc1ccc(Cl)cc1NC(=O)c1nnn(CC(=O)Nc2ccc(OC)c(OC)c2)c1N
IC50 [1]: > 50 µM (inactive) | IC50 [2]: > 56.8 µM (not active)

O=C(CNc1ccccc1OC(F)F)N1CCc2ccccc21
EC50 [14]: 0.103 µM (active) | EC50 (H4): 4.45 µM (active) | EC50 [15]: 6 µM (active) | AC50 (HeLa): 72.1 µM (active)

COc1cc(NC(=O)c2ccc(F)cc2)ccc1NC(=O)c1cc2ccccc2o1
IC50 [1]: > 50 µM (inactive) | IC50 [2]: 4.02 µM (active)

Nc1c(Br)cc([N+](=O)[O-])cc1[N+](=O)[O-]
AC50 (Cytochrome P450 3A4): 25.1 µM (inconclusive)

C[C@H](CO)N1C[C@H](C)[C@@H](CN(C)Cc2ccc(Oc3ccccc3)cc2)Oc2ccc(NS(=O)(=O)c3ccc(F)cc3)cc2CC1=O
AC50 (Paired box protein Pax-8): 6.47 µM (active) | AC50 [12]: 40 µM (active) | AC50 [13]: 63.3 µM (active)

CCCC(=O)n1nc(-c2cccnc2)nc1NCc1ccccc1
IC50 (Prothrombin): 0.00538 µM (active)

O=C(NC(=S)NNC(=O)c1ccccc1O)c1ccc([N+](=O)[O-])cc1
EC50 [16]: > 53 µM (inactive) | IC50 [17]: > 66 µM (inactive) | IC50 [5]: > 122 µM (inactive) | IC50 [18]: > 66 µM (inactive)

COc1ccccc1N=C(S)NNC(=O)c1nn(C)c(C)c1Cl
IC50 [5]: > 122 µM (inactive)

CCc1nc2sc3c(=O)cc(O)[nH]c3c2cc1C
IC50 [1]: 24.8 µM (active) | IC50 [2]: > 56.8 µM (not active)
